Where a name gives a salt, the structure may show the parent alone. Positions of bridges follow the written chain, without caps; N, C: chain ends. Non-standard residues stand in square brackets, D forms with d. Residues, ends and D or L forms follow the SMILES beside them. *: point of attachment. Trp(7-Me) = Cc1cccc2c(C[C@H](N)C(=O)O)c[nH]c12; 2Nal = N[C@@H](Cc1ccc2ccccc2c1)C(=O)O; AEF = NCCOc1ccc(C[C@H](N)C(=O)O)cc1; αMeF = C[C@](N)(Cc1ccccc1)C(=O)O; Pen = CC(C)(S)[C@H](N)C(=O)O; Isobutyryl = CC(C)C(=O)*; Thp = NC1(C(=O)O)CCOCC1; Hexanoyl = CCCCCC(=O)*; Tfa = O=C(C(F)(F)F)*; Butyryl = CCCC(=O)*
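Note: cryopreserved PBMCs stimulated at 37 °C in 5% CO2, then lysed, with phosphorylated STAT3 quantified in lysates using a phospho-STAT panel kit.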

Chain of IL-23R (Q5VWK5 24-629): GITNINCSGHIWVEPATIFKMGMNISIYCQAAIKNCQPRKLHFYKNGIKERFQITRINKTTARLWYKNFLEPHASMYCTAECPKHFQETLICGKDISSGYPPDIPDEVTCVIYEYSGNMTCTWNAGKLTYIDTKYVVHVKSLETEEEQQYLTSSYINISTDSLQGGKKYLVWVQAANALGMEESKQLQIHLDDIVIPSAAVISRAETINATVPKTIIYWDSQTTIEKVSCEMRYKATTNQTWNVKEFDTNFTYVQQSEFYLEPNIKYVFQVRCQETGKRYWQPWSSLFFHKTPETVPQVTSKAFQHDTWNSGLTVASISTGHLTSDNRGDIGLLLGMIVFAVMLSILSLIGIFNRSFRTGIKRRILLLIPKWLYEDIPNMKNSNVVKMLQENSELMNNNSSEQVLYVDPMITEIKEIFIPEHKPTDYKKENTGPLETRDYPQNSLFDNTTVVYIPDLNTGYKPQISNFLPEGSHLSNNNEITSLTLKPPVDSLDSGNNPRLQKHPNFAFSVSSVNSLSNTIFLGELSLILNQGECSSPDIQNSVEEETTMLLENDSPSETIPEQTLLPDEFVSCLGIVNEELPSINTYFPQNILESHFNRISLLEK

This experiment addresses IL-23R (Homo sapiens, UniProt Q5VWK5). The experiment is described as follows: cell-based. The conditions noted are these: PBMC pSTAT3 IC50 (nM), PBMCs from healthy donors, IL-23 5 ng/mL, 30 minutes, phosphorylated STAT3.
Method: Cryopreserved peripheral blood mononuclear cells (PBMCs) from healthy donors were thawed and washed twice in ImmunoCult-XF T cell expansion medium (XF-TCEM) supplemented with CTL anti-aggregate wash. […] The cells were stimulated with cytokine for 30 minutes at 37° C. in 5% CO2, transferred onto ice for 10 minutes, and lysed. Cell lysates were stored at −80° C. until phosphorylated STAT3 was measured using the phospho-STAT panel kit (Meso Scale Discovery, K15202D).
As usually defined, the IC50 is the concentration that inhibits the measured activity by half. In turn, `CCCC(=O)NCCCC[C@H](NC(=O)C1(NC(=O)[C@H](Cc2ccc3ccccc3c2)NC(=O)[C@H](Cc2ccc(OCCN)cc2)NC(=O)[C@H]2NC(=O)[C@H](CCC(N)=O)NC(=O)[C@H](Cc3c[nH]c4ccccc34)NC(=O)[C@H]([C@@H](C)O)NC(=O)[C@H](CCC(N)=O)NC(=O)[C@@H](NC(=O)[C@@H](CCCNC(=N)N)NC(C)=O)C(C)(C)SSC2(C)C)CCOCC1)C(=O)N[C@@H](CC(N)=O)C(=O)N[C@@H](Cc1ccccc1)C(N)=O` [Compound 58, Ac-[(D)Arg]-[Pen]-Q-T-W-Q-[Pen]-Phe[4-(2-aminoethoxy)]-[2-Nal]-[THP]-[Lys(COPr)]-N-F-NH2] (Ac-[dR][Pen]QTWQ[Pen][AEF][2Nal][Thp]K(Butyryl)NF-NH2; disulfide 2-7) registered an IC50 of 35 nM.

In the case of `CCCCCC(=O)NCCCC[C@H](NC(=O)C1(NC(=O)[C@H](Cc2ccc3ccccc3c2)NC(=O)[C@H](Cc2ccc(OCCN)cc2)NC(=O)[C@H]2NC(=O)[C@H](CCC(N)=O)NC(=O)[C@H](Cc3c[nH]c4ccccc34)NC(=O)[C@H]([C@@H](C)O)NC(=O)[C@H](CCC(N)=O)NC(=O)[C@@H](NC(=O)[C@@H](CCCNC(=N)N)NC(C)=O)C(C)(C)SSC2(C)C)CCOCC1)C(=O)N[C@@H](CC(N)=O)C(=O)N[C@@H](Cc1ccccc1)C(N)=O` [Compound 59, Ac-[(D)Arg]-[Pen]-Q-T-W-Q-[Pen]-Phe[4-(2-aminoethoxy)]-[2-Nal]-[THP]-[Lys(COPent)]-N-F-NH2] (Ac-[dR][Pen]QTWQ[Pen][AEF][2Nal][Thp]K(Hexanoyl)NF-NH2; disulfide 2-7), the IC50 turned out to be 67 nM.

The molecule `CC(=O)N[C@H](CCCNC(=N)N)C(=O)N[C@@H]1C(=O)N[C@@H](CCC(N)=O)C(=O)N[C@@H]([C@@H](C)O)C(=O)N[C@@H](Cc2c[nH]c3ccccc23)C(=O)N[C@@H](CCC(N)=O)C(=O)N[C@H](C(=O)N[C@@H](Cc2ccc(OCCN)cc2)C(=O)N[C@@H](Cc2ccc3ccccc3c2)C(=O)NC2(C(=O)N[C@@H](CCCCNC(=O)C(F)(F)F)C(=O)N[C@@H](CC(N)=O)C(=O)N[C@@H](Cc3ccccc3)C(N)=O)CCOCC2)C(C)(C)SSC1(C)C` [Compound 60, Ac-[(D)Arg]-[Pen]-Q-T-W-Q-[Pen]-Phe[4-(2-aminoethoxy)]-[2-Nal]-[THP]-[Lys(COCF3)]-N-F-NH2] (Ac-[dR][Pen]QTWQ[Pen][AEF][2Nal][Thp]K(Tfa)NF-NH2; disulfide 2-7) came in with an IC50 of 44 nM.

For the molecule `CC(=O)N[C@H](CCCNC(=N)N)C(=O)N[C@@H]1C(=O)N[C@@H](CCC(N)=O)C(=O)N[C@@H]([C@@H](C)O)C(=O)N[C@@H](Cc2c[nH]c3ccccc23)C(=O)N[C@@H](CCC(N)=O)C(=O)N[C@H](C(=O)N[C@@H](Cc2ccc(OCCN)cc2)C(=O)N[C@@H](Cc2ccc3ccccc3c2)C(=O)NC2(C(=O)N[C@@H](CCCCNC(=O)C(C)C)C(=O)N[C@@H](CC(N)=O)C(=O)N[C@@H](Cc3ccccc3)C(N)=O)CCOCC2)C(C)(C)SSC1(C)C` [Compound 61, Ac-[(D)Arg]-[Pen]-Q-T-W-Q-[Pen]-Phe[4-(2-aminoethoxy)]-[2-Nal]-[THP]-[Lys(COiPr)]-N-F-NH2] (Ac-[dR][Pen]QTWQ[Pen][AEF][2Nal][Thp]K(Isobutyryl)NF-NH2; disulfide 2-7), the IC50 came to 70 nM. Compared with the last molecule, the IC50 is about 1.6-fold higher.

Molecule `CC(=O)NCCCC[C@@H]1NC(=O)[C@H](Cc2c[nH]c3c(C)cccc23)NC(=O)[C@H]([C@@H](C)O)NC(=O)[C@H](CC(N)=O)NC(=O)[C@@H](NC(C)=O)C(C)(C)SSC(C)(C)[C@@H](C(=O)N[C@@H](Cc2ccc(OCCN)cc2)C(=O)N[C@@H](Cc2ccc3ccccc3c2)C(=O)N[C@@](C)(CCCCN)C(=O)N[C@@H](CCCCNC(C)=O)C(=O)N[C@@H](CC(N)=O)C(=O)NC2(C(N)=O)CCOCC2)NC1=O` [Compound 75, Ac-[Pen]-N-T-[W(7-Me)]-[Lys(Ac)]-[Pen]-Phe[4-(2-aminoethoxy)]-[2-Nal]-[a-MeLys]-[Lys(Ac)]-N-[THP]-NH2] showed an IC50 of 8.9 nM.

Regarding `CC(=O)NCCCC[C@@H]1NC(=O)[C@H](Cc2c[nH]c3c(C)cccc23)NC(=O)[C@H]([C@@H](C)O)NC(=O)[C@H](CC(N)=O)NC(=O)[C@@H](NC(C)=O)C(C)(C)SSC(C)(C)[C@@H](C(=O)N[C@@H](Cc2ccc(OCCN)cc2)C(=O)N[C@@H](Cc2ccc3ccccc3c2)C(=O)N[C@@](C)(CCCCN)C(=O)N[C@@H](CCCCNC(C)=O)C(=O)N[C@@H](CC(N)=O)C(=O)N[C@@](C)(Cc2ccccc2)C(N)=O)NC1=O` [Compound 76, Ac-[Pen]-N-T-[W(7-Me)]-[Lys(Ac)]-[Pen]-Phe[4-(2-aminoethoxy)]-[2-Nal]-[a-MeLys]-[Lys(Ac)]-N-[a-MePhe]-NH2], the IC50 came out at 11 nM.

Consider `CC(=O)NCCCC[C@@H]1NC(=O)[C@H](Cc2c[nH]c3c(C)cccc23)NC(=O)[C@H]([C@@H](C)O)NC(=O)[C@H](CC(N)=O)NC(=O)[C@@H](NC(=O)[C@@H](CCCNC(=N)N)NC(C)=O)C(C)(C)SSC(C)(C)[C@@H](C(=O)N[C@@H](Cc2ccc(OCCN)cc2)C(=O)N[C@@H](Cc2ccc3ccccc3c2)C(=O)NC2(C(=O)N[C@@H](CCC(=O)O)C(=O)N[C@@H](CC(N)=O)C(=O)N[C@@](C)(Cc3ccccc3)C(N)=O)CCOCC2)NC1=O` [Compound 77, Ac-[(D)Arg]-[Pen]-N-T-[W(7-Me)]-[Lys(Ac)]-[Pen]-Phe[4-(2-aminoethoxy)]-[2-Nal]-[THP]-E-N-[a-MePhe]-NH2] (Ac-[dR][Pen]NT[Trp(7-Me)]K(Ac)[Pen][AEF][2Nal][Thp]EN[αMeF]-NH2; disulfide 2-7), for which the IC50 came to 6.4 nM. Compared with the last molecule, the IC50 is about 1.7-fold lower.

Consider `COc1ccc(C[C@H](NC(=O)[C@H](CC(N)=O)NC(=O)[C@](C)(CCC(=O)O)NC(=O)C2(NC(=O)[C@H](Cc3ccc4ccccc4c3)NC(=O)[C@H](Cc3ccc(OCCN)cc3)NC(=O)[C@@H]3CSCC[C@H](NC(=O)[C@@H](CCCNC(=N)N)NC(C)=O)C(=O)N[C@@H](CCC(N)=O)C(=O)N[C@@H]([C@@H](C)O)C(=O)N[C@@H](Cc4c[nH]c5ccccc45)C(=O)N[C@@H](CCC(N)=O)C(=O)N3)CCOCC2)C(N)=O)cc1OC` [Compound 78, Ac-[(D)Arg]-[Abu]-Q-T-W-Q-[Cys]-Phe[4-(2-aminoethoxy)]-[2-Nal]-[THP]-[aMeGlu]-N-[Phe(3,4-diOMe)]-NH2], for which the midpoint of inhibition, the IC50, lay at 31 nM.

Regarding `COc1ccc(C[C@@H](NC(=O)[C@H](CC(N)=O)NC(=O)[C@](C)(CCC(=O)O)NC(=O)C2(NC(=O)[C@H](Cc3ccc4ccccc4c3)NC(=O)[C@H](Cc3ccc(OCCN)cc3)NC(=O)[C@@H]3CSCC[C@H](NC(=O)[C@@H](CCCNC(=N)N)NC(C)=O)C(=O)N[C@@H](CCC(N)=O)C(=O)N[C@@H]([C@@H](C)O)C(=O)N[C@@H](Cc4c[nH]c5ccccc45)C(=O)N[C@@H](CCC(N)=O)C(=O)N3)CCOCC2)C(N)=O)cc1OC` [Compound 79, Ac-[(D)Arg]-[Abu]-Q-T-W-Q-[Cys]-Phe[4-(2-aminoethoxy)]-[2-Nal]-[THP]-[aMeGlu]-N-[(D)Phe(3,4-diOMe)]-NH2], the IC50 was found to be 25 nM.

As to `CC(=O)N[C@H](CCCNC(=N)N)C(=O)N[C@H]1CCSC[C@@H](C(=O)N[C@@H](Cc2ccc(OCCN)cc2)C(=O)N[C@@H](Cc2ccc3ccccc3c2)C(=O)NC2(C(=O)N[C@@H](CCC(=O)O)C(=O)N[C@@H](CC(N)=O)C(=O)N[C@@](C)(Cc3ccc4ccccc4c3)C(N)=O)CCOCC2)NC(=O)[C@H](CCC(N)=O)NC(=O)[C@H](Cc2c[nH]c3ccccc23)NC(=O)[C@H]([C@@H](C)O)NC(=O)[C@H](CCC(N)=O)NC1=O` [Compound 80, Ac-[(D)Arg]-[Abu]-Q-T-W-Q-[Cys]-Phe[4-(2-aminoethoxy)]-[2-Nal]-[THP]-E-N-[aMe(2-Nal)]-NH2], the IC50 was 46 nM.

These data come from US20240383954A1, “PEPTIDE INHIBITORS OF INTERLEUKIN-23 RECEPTOR AND THEIR USE TO TREAT INFLAMMATORY DISEASES” (Janssen Biotech, Inc., priority 2020, published 2024).
